In US7705040B2, “Reagents for highly specific detection of peroxynitrite” (The University of Hong Kong, priority 2005, dated 2010):

Experiments:
[1] = Specificity of probe with different reactive oxygen species: fluorescence change with ONOO−
Protocol: (§1) Compound ss-6 obtained in Example 1 was dissolved in CH3CN to a concentration of 2 mM, and then the solution was added a 100 mM sodium phosphate buffer (pH 7.4) for dissolution to a final concentration of 20 μM. The excitation spectrum and the fluorescence spectrum of the 20 μM ss-6 solution were measured using a Perkin Elmer LS50 fluorescence spectrometer. Slit width was 5 nm for both the excitation spectrum and the fluorescence spectrum, and the photomultiplier voltage was 775 V. The measurement was carried out at the excitation wavelength of 515 nm. […]
(§2) Compound ss-6 obtained in Example 1 was dissolved in CH3CN to a concentration of 2 mM, and then the solution was added with a 100 mM sodium phosphate buffer (pH 7.4) for dissolution at a final concentration of 20 μM. […] The changes in fluorescence intensity before and after the treatment were measured. The fluorescence intensity was measured under the same conditions as those in Example 2. Each concentration of the fluorescence probe was 20 μM (a 100 mM sodium phosphate buffer, pH 7.4).
(§3) Compound ss-12 obtained in Example 5 was dissolved in CH3CN to a concentration of 2 mM, and then the solution was added with a 100 mM sodium phosphate buffer (pH 7.4) for dissolution at a final concentration of 20 μM. […] The changes in fluorescence intensity before and after the treatment were measured. […]

[2] = Specificity of probe with different reactive oxygen species: fluorescence change with SIN-1; details: ss-6 20 μM, 100 mM sodium phosphate buffer pH 7.4; 10 equiv; SIN-1 generates ONOO− slowly in buffer
Protocol: (§4) Compound ss-6 obtained in Example 1 was dissolved in CH3CN to a concentration of 2 mM, and then the solution was added a 100 mM sodium phosphate buffer (pH 7.4) for dissolution to a final concentration of 20 μM. The excitation spectrum and the fluorescence spectrum of the 20 μM ss-6 solution were measured using a Perkin Elmer LS50 fluorescence spectrometer. Slit width was 5 nm for both the excitation spectrum and the fluorescence spectrum, and the photomultiplier voltage was 775 V. The measurement was carried out at the excitation wavelength of 515 nm.
(§5) Compound ss-6 obtained in Example 1 was dissolved in CH3CN to a concentration of 2 mM, and then the solution was added with a 100 mM sodium phosphate buffer (pH 7.4) for dissolution at a final concentration of 20 μM. 50 μL of different reactive oxygen species (10 equiv) were added independently to 5 mL of the corresponding ss-6 solution. The changes in fluorescence intensity before and after the treatment were measured. The fluorescence intensity was measured under the same conditions as those in Example 2. Each concentration of the fluorescence probe was 20 μM (a 100 mM sodium phosphate buffer, pH 7.4).

[3] = test system: primary cultured cortex neurons; assay: Cell assay: fluorescent microscopy of intracellular ONOO− production after SIN-1; format: cell-based, Sprague-Dawley rats; details: probe 20 μM for 15 mins, then 10 and 100 μM SIN-1 for 15 mins; fluorescent microscopy (FIG. 24)
Protocol: Throughout this study, primary cultured cortex neurons were prepared from embryonic day 15 Sprague-Dawley rats. Briefly, dissociated cell suspensions were plated at a density of 2×10^6 cells/well on poly-L-lysine-coated 6-well plates (BD Biosciences, San Diego, Calif., USA) with Neurobasal/2% B27 (Gibco-BRL, Grand Island, N.Y.) containing glutamine (0.5 mM, Sigma Chemical Company, St. Louis, Mo.), penicillin (100 U/mL) and streptomycin (100 μg/mL). The cells were maintained in a humidified incubator at 37° C., in 5% CO2-95% air. On the tenth day, cultured cortical cells were used for experimentation. The primary cultured neuronal cells were incubated with the ss-6 and ss-12 at the concentration of 20 μM for 15 mins and then washed with sodium phosphate buffer (100 mM, pH 7.4) for 3 times. After that, the cells were treated with 10 and 100 μM SIN-1 (3-Morpholino-sydnonimine-HCl) for 15 mins. After washed with sodium phosphate buffer (100 mM, pH 7.4), the cells were observed under fluorescent microscopy.

[4] = Specific detection of peroxynitrite: fluorescence versus ONOO− concentration; details: probe 20 μM, pH 7.4, after 30 mins
Protocol: Compound ss-6 obtained in Example 1 was dissolved in CH3CN to a concentration of 2 mM, and then the solution was added with a 100 mM sodium phosphate buffer (pH 7.4) for dissolution at a final concentration of 20 μM. Then peroxynitrite was added to final concentrations of 0, 20, 60, 100, 200, 240 and 300 μM, and the fluorescence spectrum was measured after 30 mins. The fluorescence spectrum was measured under the same conditions as those in Example 2.
Compound ss-12 obtained in Example 5 was dissolved in CH3CN to a concentration of 2 mM, and then the solution was added with a 100 mM sodium phosphate buffer (pH 7.4) for dissolution at a final concentration of 20 μM. Then peroxynitrite was added to final concentrations of 0, 20, 60, 100, 200, 240 and 300 μM, and the fluorescence spectrum was measured after 30 mins. The fluorescence spectrum was measured under the same conditions as those in Example 6.

[5] = Specificity of probe with different reactive oxygen species: fluorescence change with singlet oxygen; details: ss-6 20 μM, phosphate buffer pH 7.4; 3-(1,4-dihydro-1,4-epidioxy-1-napthyl)propionic acid at 37° C. (50 μL, 20 mM)
Protocol: as §4, §2, §3

[6] = Specificity of probe with different reactive oxygen species: fluorescence change with H2O2; details: ss-6 20 μM, phosphate buffer pH 7.4; 10 equiv
Protocol: as §4, §2, §3

[7] = Specificity of probe with different reactive oxygen species: fluorescence change with superoxide; details: ss-6 20 μM, phosphate buffer pH 7.4; Xanthine Oxidase then Xanthine (50 μL, 20 mM)
Protocol: as §4, §2, §3

[8] = Fluorescence spectrum after reaction of probe with 15 equiv ONOO−; details: ss-6 20 μM, 30 min, room temperature, excitation 515 nm, FIG. 9 vs FIG. 8
Protocol: as §1
Subsequently, 15 equiv of ONOO^− solution with different concentration was slowly added to a 20 μM ss-6 solution with vigorous stirring at room temperature. […] The changes in fluorescence intensity were measured after 30 min. The excitation spectrum and the fluorescence spectrum of the solution after the completion of the reaction were measured using the same conditions as described above.
Compound ss-12 obtained in Example 5 was dissolved in CH3CN to a concentration of 2 mM, and then the solution was added a 100 mM sodium phosphate buffer (pH 7.4) for dissolution at a final concentration of 20 μM. The excitation spectrum and the fluorescence spectrum of the 20 μM ss-12 solution were measured using a Perkin Elmer® LS50 fluorescence spectrometer. […]

[9] = Specificity of probe with different reactive oxygen species: fluorescence change with hydroxyl radical; details: ss-6 20 μM, phosphate buffer pH 7.4; Fe(ClO4)2 (25 μL, 40 mM) and H2O2 (25 μL, 80 mM)
Protocol: as §4, §5

Substance: N,N-diethyl-8-[2-methoxy-(4,4,4-trifluoro-3-oxobutyl)phenyl]-4,4-difluoro-4-bora-3a,4a-diaza-s-indacene-3,5-dicarboxamide [ss-6]
- selectivity for peroxynitrite over other reactive oxygen species ([1]; probe 20 μM, phosphate buffer pH 7.4, conclusion from Tables 1 and 2): very high selectivity
- changes in fluorescence intensity before and after the treatment, ONOO^− ([1]; ss-6 20 μM, 100 mM sodium phosphate buffer pH 7.4, 10 equiv ROS, excitation 515 nm): 750%
- changes in fluorescence intensity before and after the treatment, SIN-1 [2]: 166%
- measurement of intracellular ONOO− production [3]: satisfactory results
- increase in fluorescence intensity with peroxynitrite ([4]; peroxynitrite 0, 20, 60, 100, 200, 240 and 300 μM): great increase
- relationship of fluorescence intensity with the concentration of ONOO− ([4]; peroxynitrite 0-300 μM): good linear relationship
- changes in fluorescence intensity before and after the treatment, 1O2 [5]: 3%
- changes in fluorescence intensity before and after the treatment, H2O2 [6]: −5%
- changes in fluorescence intensity before and after the treatment, O2•− [7]: −1%
- change in fluorescence intensity after reaction with ONOO− [8]: Dramatic increase
- changes in fluorescence intensity before and after the treatment, •OH [9]: 2%
